Data published in patent US12018093B2, “Hemiasterlin derivatives and antibody-drug conjugates including same” (priority 2017, dated 2024).
*1 amine or outer side, *2 acyl side, *3 side chain or, on linkers, in order; H or OH if unused. Where a SMILES comes first, the peptide text is derived from it. [ ]: non-standard residue; d: D form. NMeTrp(1,β,β-Me3) = CN[C@H](C(=O)O)C(C)(C)c1cn(C)c2ccccc12; X1 = C/C(=C\[C@H](C(C)C)N(C)[*:1])C(=O)[*:2]; Tle = CC(C)(C)[C@H](N)C(=O)O

Assays:
[1] = tested on: Karpas-299 cells; test: Cellular toxicity test (1), CellTiter-Glo, Karpas-299; type: cell-based; settings: Homo sapiens, 96 h, cultured 4 days, cell viability
Experimental: SU-DHL-1 cells (American Type Culture Collection, hereinafter, ATCC) and Karpas-299 cells (European Collection of Authenticated Cell Cultures, hereinafter, ECACC), which are human lymphoma cell lines, were cultured in RPMI 1640 (GIBCO) containing 10% fetal bovine serum (MP Biomedicals) (hereinafter, referred to as the “culture medium” in this test). SU-DHL-1 cells and Karpas-299 cells were prepared to be 2×10^6 cells/mL in the culture medium, and were added to a 96 well microplate for cell culturing in an amount of 50 μL for each well. Compounds of Examples or hemiasterlin 4 times diluted with the culture medium in 8 stages were added to the microplate in an amount of 50 μL for each well. To wells to which the test substance was not added, the culture medium was added in an amount of 50 μL for each well. These were cultured at 37 degree under 5% CO2 for 4 days. After culturing, the microplate was taken out from the incubator, and was left at rest at room temperature for 10 minutes. To each well, 50 μL of CellTiter-Glo Luminescent Cell Viability Assay (Promega) was added, and the resultant mixture was stirred. This mixture was incubated at a dark place for 20 minutes. Using a microplate luminometer, luminescence at each well was measured, thereby calculating the cell viability for each concentration of the test substance. From the cell viability, the IC50 value of the test substance was determined.
The IC50 value was calculated by the following formula: IC50(nM)=antilog(LOG10(a/b)×(e−d)/(c−d)+LOG10b) • a: concentration a of test substance • b: concentration b of test substance • c: cell viability upon adding test substance with concentration a • d: cell viability upon adding test substance with concentration b • e: intermediate value between maximum and minimum among cell viabilities upon • adding test substances with different concentrations (a and b are concentrations crossing the cell viability e, and a>b is indicated).
The cell viability at each concentration was calculated by the following formula: Cell Viability (%)=a′/b′×100 • a′: mean value of luminescence amount of wells to which test substance was added (n=6) • b′: mean value of luminescence amount of wells to which test substance was not added (n=6) • (n represents the number of evaluations performed per test substance concentration).

[2] = target: porcine tubulin (Sus scrofa, UniProt P02550+P02554); test: Activity for inhibiting microtubule polymerization using porcine tubulins (2), microtubule polymerization rate; settings: 60 minutes after assay initiation; relative to wells without compound; lower = stronger inhibition
[3] = in vitro; settings: PAMPA, pH 7.4
Experimental: By the parallel artificial membrane permeability assay (PAMPA), the membrane permeability of compounds of Examples was examined as follows: To the donor plate, System solution (pION inc.) and GIT Lipid-0 (pION inc.) were added in an amount of 200 μL and 4 μL for each well, respectively. To the acceptor plate, Acceptor Sink Buffer (pION inc.) was added in an amount of 200 μL. Both plates were superposed and incubated at 37° C. for 4 hours, and then, UVs in the solutions on the side of acceptor and on the side of donor were measured with an UV plate reader (190 to 500 nm). Compounds with poor UV absorption were measured by LC-MS. The permeability coefficient Pe (10^−6 cm/sec) of the drug was calculated by the following formula.

Chain of porcine tubulin (P02554 whole entry): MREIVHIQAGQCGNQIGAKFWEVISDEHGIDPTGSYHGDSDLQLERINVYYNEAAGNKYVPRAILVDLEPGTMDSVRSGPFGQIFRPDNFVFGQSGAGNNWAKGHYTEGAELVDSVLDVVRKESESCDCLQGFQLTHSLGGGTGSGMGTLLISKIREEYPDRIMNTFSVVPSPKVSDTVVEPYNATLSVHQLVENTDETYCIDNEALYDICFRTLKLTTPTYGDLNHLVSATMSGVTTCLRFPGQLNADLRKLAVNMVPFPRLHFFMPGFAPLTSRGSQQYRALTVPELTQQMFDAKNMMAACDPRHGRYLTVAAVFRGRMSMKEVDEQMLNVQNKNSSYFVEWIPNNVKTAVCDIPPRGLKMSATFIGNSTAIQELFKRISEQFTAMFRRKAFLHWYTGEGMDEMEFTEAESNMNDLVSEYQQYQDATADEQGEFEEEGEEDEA
Chain of porcine tubulin (P02550 whole entry): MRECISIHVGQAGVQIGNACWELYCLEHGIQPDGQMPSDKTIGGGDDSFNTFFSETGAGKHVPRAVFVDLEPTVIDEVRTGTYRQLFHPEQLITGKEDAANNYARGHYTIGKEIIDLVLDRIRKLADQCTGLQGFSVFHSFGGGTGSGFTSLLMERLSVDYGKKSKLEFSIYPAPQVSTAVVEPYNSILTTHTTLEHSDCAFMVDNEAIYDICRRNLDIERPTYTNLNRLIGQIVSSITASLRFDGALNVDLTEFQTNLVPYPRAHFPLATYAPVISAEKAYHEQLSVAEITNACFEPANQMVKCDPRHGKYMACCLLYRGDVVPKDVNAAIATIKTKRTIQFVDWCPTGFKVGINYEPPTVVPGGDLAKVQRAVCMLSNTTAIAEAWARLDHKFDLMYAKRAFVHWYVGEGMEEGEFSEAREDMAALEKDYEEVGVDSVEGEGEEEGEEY

| SMILES | IC50 [1] | Microtubule polymerization rate (%) [2] | Papp [3] | Papp at 4 h [3] |
| --- | --- | --- | --- | --- |
| CCOC(=O)CC[C@@H](NC(=O)/C(C)=C/[C@H](C(C)C)N(C)C(=O)[C@@H](NC(=O)[C@@H](N)C(C)(C)c1cn(C)c2ccccc12)C(C)(C)C)C(=O)OCC [Example 1, (2R)-2-{[(2E,4S)-4-{[(2S)-2-{[(2S)-2-Amino-3-methyl-3-(1-methyl-1H-indol-3-yl)butanoyl]amino}-3,3-dimethylbutanoyl](methyl)amino}-2,5-dimethylhex-2-enoyl]amino}pentane diethyl diester] | 93.9 nM | – | – | – |
| C/C(=C\[C@H](C(C)C)N(C)C(=O)[C@@H](NC(=O)[C@@H](N)C(C)(C)c1cn(C)c2ccccc12)C(C)(C)C)C(=O)N[C@H](CCC(=O)O)C(=O)O [Example 2, β,β,1-Trimethyl-L-tryptophyl-N-[(3S,4E)-6-{[(1R)-1,3-dicarboxypropyl]amino}-2,5-dimethyl-6-oxohex-4-en-3-yl]-N,3-dimethyl-L-valinamide] | > 125 nM | 4% | 0.2 ×10⁻⁶ cm/s | – |
| CN[C@H](C(=O)N[C@H](C(=O)N(C)[C@H](/C=C(\C)C(=O)N[C@@H](CC(=O)O)C(=O)N[C@@H](CC(=O)O)C(=O)N[C@@H](CC(=O)O)C(=O)N[C@@H](CC(=O)O)C(=O)N[C@@H](CC(=O)O)C(=O)O)C(C)C)C(C)(C)C)C(C)(C)c1cn(C)c2ccccc12 [Example 3, N-{(2E,4S)-2,5-Dimethyl-4-[methyl(N,β,β,1-tetramethyl-L-tryptophyl-3-methyl-L-valyl)amino]hex-2-enoyl}-L-α-aspartyl-L-t-aspartyl-L-α-aspartyl-L-α-aspartyl-L-α-aspartic acid] (H-[NMeTrp(1,β,β-Me3)][Tle][X1]DDDDD-OH) | > 5000 nM | 3% | – | < 0.1 ×10⁻⁶ cm/s |
| CN[C@H](C(=O)N[C@H](C(=O)N(C)[C@H](/C=C(\C)C(=O)N[C@H](CCCCN)C(=O)O)C(C)C)C(C)(C)C)C(C)(C)c1cn(C)c2ccccc12 [Example 5] | 87.2 nM | – | – | – |
| CN[C@H](C(=O)N[C@H](C(=O)N(C)[C@H](/C=C(\C)C(=O)N[C@@H](CCC(=O)O)C(=O)O)C(C)C)C(C)(C)C)C(C)(C)c1cn(C)c2ccccc12 [Example 6] | 34 nM | – | < 0.1 ×10⁻⁶ cm/s | – |
| CCOC(=O)[C@H](CCC(=O)O)NC(=O)/C(C)=C/[C@H](C(C)C)N(C)C(=O)[C@@H](NC(=O)[C@@H](NC)C(C)(C)c1cn(C)c2ccccc12)C(C)(C)C [Example 13] | – | 21% | – | – |
| CN[C@H](C(=O)N[C@H](C(=O)N(C)[C@H](/C=C(\C)C(=O)N[C@@H](CCC(=O)N[C@@H](CCC(=O)O)C(=O)O)C(=O)N[C@@H](CCC(=O)O)C(=O)O)C(C)C)C(C)(C)C)C(C)(C)c1cn(C)c2ccccc12 [Example 47] (H-[NMeTrp(1,β,β-Me3)][Tle][X1]E(Glu)E-OH) | 773 nM | 3% | < 0.1 ×10⁻⁶ cm/s | – |
| CN[C@H](C(=O)N[C@H](C(=O)N(C)[C@H](/C=C(\C)C(=O)N[C@H](CCC(=O)N[C@@H](CCCCN)C(=O)O)C(=O)O)C(C)C)C(C)(C)C)C(C)(C)c1cn(C)c2ccc(F)cc12 [Example 52] | 230 nM | – | < 0.1 ×10⁻⁶ cm/s | – |
| CN[C@H](C(=O)N[C@H](C(=O)N(C)[C@H](/C=C(\C)C(=O)N[C@@H](CS(=O)(=O)O)C(=O)O)C(C)C)C(C)(C)C)C(C)(C)c1ccccc1 [Example 53] | 122 nM | – | < 0.1 ×10⁻⁶ cm/s | – |
| CN[C@H](C(=O)N[C@H](C(=O)N(C)[C@H](/C=C(\C)C(=O)N[C@@H](COP(=O)(O)O)C(=O)O)C(C)C)C(C)(C)C)C(C)(C)c1ccccc1 [Example 54] | 22.2 nM | – | – | – |
| CN[C@H](C(=O)N[C@H](C(=O)N(C)[C@H](/C=C(\C)C(=O)N[C@H](CCC(=O)O)C(=O)O)C(C)C)C(C)(C)C)C(C)(C)c1cccc(C(F)(F)F)c1 [Example 55] | 34.6 nM | 16% | < 0.1 ×10⁻⁶ cm/s | – |
| CN[C@H](C(=O)N[C@H](C(=O)N(C)[C@H](/C=C(\C)C(=O)N[C@H](CCC(=O)O)C(=O)O)C(C)C)C(C)(C)C)C(C)(C)c1cccc(F)c1 [Example 56] | 275 nM | 7% | 0.7 ×10⁻⁶ cm/s | – |
| C/C(=C\[C@H](C(C)C)N(C)C(=O)[C@@H](NC(=O)[C@H]1CCCCN1C(C)C)C(C)(C)C)C(=O)N[C@H](CCC(=O)O)C(=O)O [Example 57] | > 1000 nM | 5% | < 0.1 ×10⁻⁶ cm/s | – |
| CN[C@H](C(=O)N[C@H](C(=O)N(C)[C@H](/C=C(\C)C(=O)N[C@H](CCC(=O)O)C(=O)O)C(C)C)C(C)(C)C)C(C)(C)C1CCCCC1 [Example 58] | > 1000 nM | 5% | 9 ×10⁻⁶ cm/s | – |
| CNC(C(=O)N[C@H](C(=O)N(C)[C@H](/C=C(\C)C(=O)N[C@H](CCC(=O)O)C(=O)O)C(C)C)C(C)(C)C)C(C)(C)c1ccc(O)cc1 (stereo partly shown) [Example 59] | 412 nM | 2% | 0.5 ×10⁻⁶ cm/s | – |
| CN[C@H](C(=O)N[C@H](C(=O)N(C)[C@H](/C=C(\C)C(=O)N[C@H](CCC(=O)O)C(=O)O)C(C)C)C(C)(C)C)C(C)(C)c1cccc(C#N)c1 [Example 60] | 406 nM | 6% | < 0.1 ×10⁻⁶ cm/s | – |
| CN[C@H](C(=O)N[C@H](C(=O)N(C)[C@H](/C=C(\C)C(=O)N[C@H](CCC(=O)O)C(=O)O)C(C)C)C(C)(C)C)C(C)(C)c1cc(C)cc(C)c1 [Example 62] | – | 6% | – | – |
| CN[C@H](C(=O)N[C@H](C(=O)N(C)[C@H](/C=C(\C)C(=O)N[C@H](CCC(=O)O)C(=O)O)C(C)C)C(C)(C)C)C(C)(C)c1ccc2ccccc2c1 [Example 64] | 30 nM | – | – | – |
| CN[C@@H](C(=O)N[C@H](C(=O)N(C)[C@H](/C=C(\C)C(=O)N[C@H](CCC(=O)O)C(=O)O)C(C)C)C(C)(C)C)C(C)(C)c1cccc(Br)c1 [Example 65] | > 1000 nM | – | < 0.1 ×10⁻⁶ cm/s | – |
| CN[C@H](C(=O)N[C@H](C(=O)N(C)[C@H](/C=C(\C)C(=O)N[C@H](CCC(=O)O)C(=O)O)C(C)C)C(C)(C)C)C(C)(C)c1ccc(C(=O)OC(C)(C)C)cc1 [Example 66] | > 1000 nM | 9% | < 0.1 ×10⁻⁶ cm/s | – |
| CN[C@H](C(=O)N[C@H](C(=O)N(C)[C@H](/C=C(\C)C(=O)N[C@H](CCC(=O)O)C(=O)O)C(C)C)C(C)(C)C)C(C)(C)c1cccc(-c2ccccc2)c1 [Example 67] | 149 nM | 42% | < 0.1 ×10⁻⁶ cm/s | – |
| CN[C@H](C(=O)N[C@H](C(=O)N(C)[C@H](/C=C(\C)C(=O)N[C@H](CCC(=O)O)C(=O)O)C(C)C)C(C)(C)C)C(C)(C)c1cccc(C)c1 [Example 68] | 26.5 nM | 4% | < 0.1 ×10⁻⁶ cm/s | – |
| CN[C@H](C(=O)N[C@H](C(=O)N(C)[C@H](/C=C(\C)C(=O)N[C@H](CCC(=O)O)C(=O)O)C(C)C)C(C)(C)C)C(C)(C)c1cccc(Br)c1 [Example 69] | 97.1 nM | 5% | < 0.1 ×10⁻⁶ cm/s | – |
| CNC(C(=O)N[C@H](C(=O)N(C)[C@H](/C=C(\C)C(=O)N[C@H](CCC(=O)O)C(=O)O)C(C)C)C(C)(C)C)C(C)(C)c1ccc(C(=O)O)cc1 (stereo partly shown) [Example 70] | 721 nM | – | 0.9 ×10⁻⁶ cm/s | – |
| CN[C@H](C(=O)N[C@H](C(=O)N(C)[C@H](/C=C(\C)C(=O)N[C@H](CCC(=O)O)C(=O)O)C(C)C)C(C)(C)C)C(C)(C)c1ccc(C(=O)O)cc1 [Example 71] | 701 nM | 4% | < 0.1 ×10⁻⁶ cm/s | – |
| CN[C@H](C(=O)N[C@H](C(=O)N(C)[C@H](/C=C(\C)C(=O)N[C@@H](CCC(=O)OC)C(=O)OC)C(C)C)C(C)(C)C)C(C)(C)c1cn(C)c2ccccc12 [Example 72] | 106 nM | 1% | < 0.1 ×10⁻⁶ cm/s | – |
